Source: patent US7485315B2, “Compositions comprising a compound of low solubility and a lipophilic amino acid derivative, uses thereof and process for dissolving a compound of low solubility” (L'Oreal, priority 2001, dated 2009)

Legend:
[1] = Simple solubility in isopropyl N-lauroylsarcosinate
Description: Protocol: The derivatives of low solubility in water are weighed out and placed in a sealed pill bottle. The required amount of solvent is added. The suspension is stirred (magnetic stirring) at 80° C. for not more than 1 hour.
The non-solubility of the active agent in the solvent is characterized macroscopically by a precipitate or just a cloudy solution, and microscopically by the presence of crystals.
The solvent used is isopropyl N-lauroylsarcosinate.

[2] = Dissolution by lipophilic amino acid derivatives without recrystallization; type: physicochemical; conditions: in lipophilic amino acid derivatives, after 24 hours at 25° C.
Description: By way of illustration, the lipophilic amino acid derivatives used for the purposes of the present patent application allowed the dissolution of: • more than 20% of aminophenol derivatives without recrystallization after three weeks at 25° C., • more than 15% of salicylic acid derivatives without recrystallization after three weeks at 25° C. • about 4% of diosgenin or hecogenin acetate without recrystallization after 24 hours at 25° C.

[3] = content 5% in isopropyl N-lauroylsarcosinate
[4] = content 2% in isopropyl N-lauroylsarcosinate

Compound	Stability over time at 25° C. (clear for) [1, 3]	Amount dissolved without recrystallization [2]	Stability over time at 25° C. (clear for) [1, 4]	further results
CCCCCCCCCCCCNc1ccnc(N)[n+]1[O-] [2-amino-4-dodecylaminopyrimidine 3-oxide]	–	–	–	Stability over time at 25° C. (clear for) ([1]; content 1% in isopropyl N-lauroylsarcosinate): clear for 1 day
CCCCCCCC(=O)c1ccc(O)c(C(=O)O)c1 [5-n-octanoylsalicylic acid]	clear for 7 days	–	–	Stability over time at 25° C. (clear for) ([1]; content 9% in isopropyl N-lauroylsarcosinate): clear for 4 days; Stability over time at 25° C. ([1]; content 27% in isopropyl N-lauroylsarcosinate): clear
CC(=O)O[C@H]1CC[C@@]2(C)[C@@H](CC[C@@H]3[C@@H]2CC(=O)[C@]2(C)[C@@H]4[C@H](C[C@@H]32)O[C@]2(CC[C@@H](C)CO2)[C@H]4C)C1 [Hecogenin acetate, (3β, 5α, 25R)-3-hydroxyspirostan-12-one (hecogenin acetate)]	–	about 4%	clear for 1 day	–
CCOC(=O)Nc1ccc(O)cc1 [N-ethoxycarbonyl-para-aminophenol, N-ethoxycarbonyl-4-para-aminophenol]	clear for 18 days	–	–	Stability over time at 25° C. (clear for) ([1]; content 20% in isopropyl N-lauroylsarcosinate): clear for 6 days; Stability over time at 25° C. (clear for) ([1]; content 23% in isopropyl N-lauroylsarcosinate): clear for 6 days; Stability over time at 25° C. (clear for) ([1]; content 26% in isopropyl N-lauroylsarcosinate): clear for 1 day
C[C@@H]1CC[C@@]2(OC1)O[C@H]1C[C@H]3[C@@H]4CC=C5C[C@@H](O)CC[C@]5(C)[C@H]4CC[C@]3(C)[C@H]1[C@@H]2C [Diosgenin, 5-spirostene-3-β-ol]	–	about 4%	clear for 3 weeks	–
